Measurements as given in article PMC6661766, “Antimicrobial, antioxidant and cytotoxic evaluation of diazenyl chalcones along with insights to mechanism of interaction by molecular docking studies” (BMC Chemistry, 2019).
Converted amounts (≈) assume the structure as drawn. Read-outs that look alike come from different tables or passages of the source.

Tests used:
[1] = DPPH scavenging antioxidant assay
Experimental: The derivatives (C18–C27) were assessed for their antioxidant potential in the presence of the stable free radical DPPH using ascorbic acid as the standard compound [36, 37]. […] The total volume of 200 µl was used in each well for each concentration of the test and standard drug containing 0.004 µg DPPH. The assay was performed in triplicate at all concentrations of each sample and standard compound. DPPH solutions in methanol at the same concentration without test drugs were used as the control. Each concentration of the sample and standard has a different blank. To minimize evaporation, the plate was covered with the lid and wrapped in aluminium foil and kept in the dark place in order to protect the DPPH radical from degradation by light and left for 30 min. After 30 min of incubation, the plate was kept in ELISA reader to measure the absorbance values at 517 nm. The experiment was performed in triplicate. The antioxidant activity of each sample was then calculated as per cent inhibition of DPPH according to the following equation: %decolourationofDPPH=ControlAbs-SampleAbs×100/ControlAbs

[2] = test system: B. cereus; test: Antimicrobial serial tube dilution, MIC and MBC; type: cell-based, Bacillus cereus MTCC 1305
Experimental: (§1) The synthesized diazenyl chalcones (C18 to C27) and controls (dyes A and E, and chalcone) were assessed for their antimicrobial activity by estimation of MIC and MBC/MFC values. […] The stock solutions of the test compounds and standard drugs having a concentration of 1000 µg ml^−1 were prepared by dissolving the used compounds in DMSO. The nutrient broth/Sabouraud dextrose broth was used for the serial dilution of the test compounds and referenced drugs for bacterial and fungal cultures, respectively. […] The size of the final inoculum in each test tube was taken as 5 × 10^5 CFU ml^−1. The incubation of the test and standard compounds of varying concentrations was done for 24 h at 37 ± 2 °C (bacterial culture) and for 48 h at 37 ± 2 °C (C. albicans) and for 7 d at 25 ± 2 °C (A. fumigatus). The diazenyl chalcones (C18–C27), were further evaluated for their bactericidal/fungicidal activity by estimation of MBC/MFC values. […] For proper mixing of culture media, the plates were shaken gently followed by incubation at the predefined temperature and time as stated earlier, followed by the visual inspection of the plates for signs of microbial growth.

[3] = test system: S. typhi; test: Antimicrobial serial tube dilution, MIC and MBC; type: cell-based, Salmonella typhi MTCC 3216; settings: for MIC / MBC: Salmonella enterica, TYPHI; for MIC: 24 h, read-out: S. typhi MIC; for MBC: read-out: S. typhi MBC; for S. typhi MIC: 24 h at 37 ± 2 °C
Experimental: as §1

[4] = test system: E. coli; test: Antimicrobial serial tube dilution, MIC and MBC; type: cell-based, Escherichia coli MTCC 1652
Experimental: as §1

[5] = test system: S. aureus; test: Antimicrobial serial tube dilution, MIC and MBC; type: cell-based, Staphylococcus aureus MTCC 2901
Experimental: as §1

[6] = test system: B. subtilis; test: Antimicrobial serial tube dilution, MIC and MBC; type: cell-based, Bacillus subtilis MTCC 2063
Experimental: as §1

[7] = test system: C. albicans; test: Antimicrobial serial tube dilution, MIC and MFC; type: cell-based, Candida albicans MTCC 227; settings: for C. albicans MIC: 48 h at 37 ± 2 °C
Experimental: as §1

[8] = test system: A. fumigatus; test: Antimicrobial serial tube dilution, MIC and MFC; type: cell-based, Aspergillus fumigatus MTCC 2584; settings: for A. fumigatus MIC: 7 d at 25 ± 2 °C
Experimental: as §1

[9] = Bacillus cereus, 24 h, read-out: B. cereus MIC
[10] = Bacillus cereus; read-out: B. cereus MBC
[11] = Escherichia coli, read-out: E. coli MBC
[12] = Escherichia coli; 24 h at 37 ± 2 °C; read-out: E. coli MIC
[13] = Staphylococcus aureus; 24 h at 37 ± 2 °C; read-out: S. aureus MIC
[14] = Staphylococcus aureus; read-out: S. aureus MBC
[15] = Bacillus subtilis, 24 h, read-out: B. subtilis MIC
[16] = Bacillus subtilis, read-out: B. subtilis MBC
[17] = Bacillus subtilis; 24 h at 37 ± 2 °C; read-out: B. subtilis MIC
[18] = Escherichia coli, 24 h, read-out: E. coli MIC, 24 h at 37 ± 2 °C

SMILES: O=C1O[C@H]([C@@H](O)CO)C(O)=C1O [Ascorbic acid, ascorbic acid, reference compound]
- IC50 DPPH [1]: 4.45 µg/mL (≈ 25.3 µM)
- % inhibition of DPPH ([1]; 1.56 µg ml^−1): 39.22%
- % inhibition of DPPH ([1]; 3.12 µg ml^−1): 46.53%
- % inhibition of DPPH ([1]; 6.25 µg ml^−1): 80.07%
- % inhibition of DPPH ([1]; 12.5 µg ml^−1): 84.09%
- % inhibition of DPPH ([1]; 25 µg ml^−1): 87.81%
- % inhibition of DPPH ([1]; 50 µg ml^−1): 89.95%
- % inhibition of DPPH ([1]; 100 µg ml^−1): 90.31%
- IC50 DPPH ([1]; listed as Ascorbic Acid): 4.451 µg/mL (≈ 25.3 µM)

SMILES: O=C(O)c1cn(C2CC2)c2cc(N3CCNCC3)c(F)cc2c1=O [CIP, ciprofloxacin, reference compound]
- MIC [2, 9]: 7.81 µg/mL (≈ 23.6 µM)
- MBC [2, 10]: 15.6 µg/mL (≈ 47.1 µM)
- MIC [3]: 7.81 µg/mL (≈ 23.6 µM)
- MBC [3]: 7.81 µg/mL (≈ 23.6 µM)
- MBC [4, 11]: 7.81 µg/mL (≈ 23.6 µM)
- MIC [4, 12]: 3.9 µg/mL (≈ 11.8 µM)
- MIC [5, 13]: 1.95 µg/mL (≈ 5.89 µM)
- MBC [5, 14]: 3.9 µg/mL (≈ 11.8 µM)
- MIC [6, 15]: 7.81 µg/mL (≈ 23.6 µM)
- MBC ([6]; Bacillus subtilis; read-out: B. subtilis MBC): 15.6 µg/mL (≈ 47.1 µM)

SMILES: CC1=C(C(=O)O)N2C(=O)[C@@H](NC(=O)[C@H](N)c3ccc(O)cc3)[C@H]2SC1 [Cefadroxil, cefadroxil, reference compound]
- MIC ([2]; Bacillus cereus; 24 h at 37 ± 2 °C; read-out: B. cereus MIC): 31.2 µg/mL (≈ 86 µM)
- MBC [2, 10]: 31.2 µg/mL (≈ 86 µM)
- MIC [3]: 125 µg/mL (≈ 344 µM)
- MBC [3]: 125 µg/mL (≈ 344 µM)
- MIC [4, 12]: 31.2 µg/mL (≈ 86 µM)
- MBC ([4]; Escherichia coli; read-out: E. coli MBC): 31.2 µg/mL (≈ 86 µM)
- MIC [5, 13]: 15.6 µg/mL (≈ 43 µM)
- MBC [5, 14]: 31.2 µg/mL (≈ 86 µM)
- MBC [6, 16]: 125 µg/mL (≈ 344 µM)
- MIC [6, 17]: 62.5 µg/mL (≈ 172 µM)

SMILES: CO/N=C(\C(=O)N[C@@H]1C(=O)N2C(C(=O)O)=C(COC(C)=O)CS[C@H]12)c1csc(N)n1 [Cefotaxime, cefotaxime, reference compound]
- MIC [2, 9]: 7.81 µg/mL (≈ 17.1 µM)
- MBC [2, 10]: 15.6 µg/mL (≈ 34.3 µM)
- MIC [3]: 3.9 µg/mL (≈ 8.56 µM)
- MBC [3]: 7.81 µg/mL (≈ 17.1 µM)
- MIC [4, 18]: 7.81 µg/mL (≈ 17.1 µM)
- MBC [4, 11]: 7.81 µg/mL (≈ 17.1 µM)
- MIC [5, 13]: 15.6 µg/mL (≈ 34.3 µM)
- MBC [5, 14]: 31.2 µg/mL (≈ 68.6 µM)
- MBC [6, 16]: 7.81 µg/mL (≈ 17.1 µM)
- MIC [6, 17]: 1.95 µg/mL (≈ 4.28 µM)

SMILES: O=C(/C=C/c1ccc(Cl)cc1Cl)c1ccc(O)cc1 [Chalcone, (E)-3-(2,4-dichlorophenyl)-1-(4-hydroxyphenyl)prop-2-en-1-one]
- B. cereus MBC [2]: 62.5 µg/mL
- B. cereus MIC ([2]; 24 h at 37 ± 2 °C): 62.5 µg/mL
- S. typhi MBC [3]: 62.5 µg/mL
- S. typhi MIC [3]: 31.25 µg/mL
- E. coli MBC [4]: 31.25 µg/mL
- E. coli MIC ([4]; 24 h at 37 ± 2 °C): 15.62 µg/mL
- S. aureus MBC [5]: 62.5 µg/mL
- S. aureus MIC ([5]; 24 h at 37 ± 2 °C): 31.25 µg/mL
- B. subtilis MBC [6]: 62.5 µg/mL
- B. subtilis MIC ([6]; 24 h at 37 ± 2 °C): 62.5 µg/mL
- C. albicans MFC [7]: 125 µg/mL
- C. albicans MIC [7]: 125 µg/mL
- A. fumigatus MFC [8]: 125 µg/mL
- A. fumigatus MIC [8]: 125 µg/mL
- IC50 DPPH [1]: 76.77 µg/mL (≈ 262 µM)
- % inhibition of DPPH ([1]; 1.56 µg ml^−1): 6.54%
- % inhibition of DPPH ([1]; 3.12 µg ml^−1): 8.12%
- % inhibition of DPPH ([1]; 6.25 µg ml^−1): 10.76%
- % inhibition of DPPH ([1]; 12.5 µg ml^−1): 16.90%
- % inhibition of DPPH ([1]; 25 µg ml^−1): 21.57%
- % inhibition of DPPH ([1]; 50 µg ml^−1): 34.56%
- % inhibition of DPPH ([1]; 100 µg ml^−1): 51.80%

SMILES: O=C(/C=C/c1ccc(Cl)cc1Cl)c1ccc(O)c(N=Nc2cccc(Cl)c2Cl)c1 [Compound C-18, (2E)-3-(2,4-Dichlorophenyl)-1-(3-((2,3-dichlorophenyl)diazenyl)-4-hydroxyphenyl)prop-2-en-1-one]
- MIC [2, 9]: 31.2 µg/mL (≈ 67 µM)
- MBC ([2]; Bacillus cereus, read-out: B. cereus MBC): 125 µg/mL (≈ 268 µM)
- MIC [3]: 31.2 µg/mL (≈ 67 µM)
- MBC [3]: 125 µg/mL (≈ 268 µM)
- E. coli MIC ([4]; 24 h at 37 ± 2 °C): 15.62 µg/mL
- MIC [4, 18]: 7.81 to 15.6 µg/mL (≈ 16.8 to 33.5 µM)
- MBC [4, 11]: 62.5 µg/mL (≈ 134 µM)
- MIC ([5]; Staphylococcus aureus, 24 h, read-out: S. aureus MIC): 31.2 µg/mL (≈ 67 µM)
- MBC ([5]; Staphylococcus aureus, read-out: S. aureus MBC): 125 µg/mL (≈ 268 µM)
- MIC [6, 15]: 125 µg/mL (≈ 268 µM)
- MBC [6, 16]: 125 µg/mL (≈ 268 µM)
- MIC ([7]; Candida albicans, 48 h, read-out: C. albicans MIC): 125 µg/mL (≈ 268 µM)
- MFC ([7]; Candida albicans, read-out: C. albicans MFC): 125 µg/mL (≈ 268 µM)
- MIC ([8]; Aspergillus fumigatus, 168 h, read-out: A. fumigatus MIC): 125 µg/mL (≈ 268 µM)
- MFC ([8]; Aspergillus fumigatus, read-out: A. fumigatus MFC): 125 µg/mL (≈ 268 µM)
- IC50 DPPH [1]: > 100 µg/mL
- % inhibition of DPPH ([1]; 1.56 µg ml^−1): 7.21%
- % inhibition of DPPH ([1]; 3.12 µg ml^−1): 8.76%
- % inhibition of DPPH ([1]; 6.25 µg ml^−1): 9.37%
- % inhibition of DPPH ([1]; 12.5 µg ml^−1): 12.35%
- % inhibition of DPPH ([1]; 25 µg ml^−1): 15.68%
- % inhibition of DPPH ([1]; 50 µg ml^−1): 21.79%
- % inhibition of DPPH ([1]; 100 µg ml^−1): 31.98%
- melting point: 110 to 112 °C

SMILES: O=C(/C=C\c1cccc(Br)c1)c1cccc(N=Nc2cc(Cl)ccc2Cl)c1O [Compound C-26, (2Z)-3-(3-Bromophenyl)-1-(3-((2,5-dichlorophenyl)diazenyl)-2-hydroxyphenyl)prop-2-en-1-one]
- B. cereus MBC [2]: 250 µg/mL
- B. cereus MIC ([2]; 24 h at 37 ± 2 °C): 250 µg/mL
- S. typhi MBC [3]: 62.5 µg/mL
- S. typhi MIC [3]: 15.62 µg/mL
- E. coli MBC [4]: 125 µg/mL
- E. coli MIC ([4]; 24 h at 37 ± 2 °C): 62.5 µg/mL
- S. aureus MBC [5]: 31.25 µg/mL
- S. aureus MIC ([5]; 24 h at 37 ± 2 °C): 7.81 µg/mL
- B. subtilis MBC [6]: 62.5 µg/mL
- B. subtilis MIC ([6]; 24 h at 37 ± 2 °C): 62.5 µg/mL
- C. albicans MFC [7]: 125 µg/mL
- C. albicans MIC [7]: 125 µg/mL
- A. fumigatus MFC [8]: 125 µg/mL
- A. fumigatus MIC [8]: 125 µg/mL
- % inhibition of DPPH ([1]; 1.56 µg ml^−1): 5.72%
- % inhibition of DPPH ([1]; 3.12 µg ml^−1): 7.91%
- % inhibition of DPPH ([1]; 6.25 µg ml^−1): 11.90%
- % inhibition of DPPH ([1]; 12.5 µg ml^−1): 14.04%
- % inhibition of DPPH ([1]; 25 µg ml^−1): 21.98%
- % inhibition of DPPH ([1]; 50 µg ml^−1): 24.65%
- % inhibition of DPPH ([1]; 100 µg ml^−1): 29.62%
- log IC50 DPPH ([1]; Fig. 1): 1.349
